In PubChem BioAssay AID624344 (Sanford-Burnham Center for Chemical Genomics, 2012):
The source made the active and inactive calls. No rule for the calls is given here.

Assays:
Cytotoxicity = experiment: inhibitors of PAF-induced NFkB signaling in CF airway cells, dose response, cell-based, uHTS hits, panel, cytotoxicity readout (AID 624344); details: CF bronchial epithelial cells, mean of runs
[1] = as above; details: CF bronchial epithelial cells, PAF-induced NFkB reporter inhibition; with PAF, mean of runs

Compound	IC50 (Cytotoxicity)	IC50 [1]
c1cc2[nH]snc2c2nc(C3CC3)nc12	13.3 µM	3.06 µM
COc1ccc(-c2ccccc2[C@H]2[C@@H]3C=CC[C@@H](C)[C@@H]3C(=O)N2Cc2ccccc2)cc1	19.6 µM	13.6 µM
Cn1c(SC2=CS(=O)(=O)c3ccccc32)nc2ccccc21	7.01 µM	1.83 µM
NS(=O)(=O)c1ccc(CCNc2nn3c(-c4cccc(OC(F)(F)F)c4)cnc3s2)cc1	19.7 µM	3.64 µM
COc1ccc(CN2C[C@H]3CCCN3c3cc(Br)ccc3S2(=O)=O)cc1	61.7 µM (inactive)	9.73 µM
CC1CCN(CC(CS(=O)(=O)c2ccc([N+](=O)[O-])cc2)N2CCC(C)CC2)CC1 (centres undefined)	3.57 µM	2.44 µM
CCOC(=O)c1c(C)c2c(=O)[nH]cnc2n1-c1ccccc1	13.9 µM	1.89 µM
FC(F)Sc1ccc(NC(=S)NC(c2ccccc2)c2ccccc2)cc1	9.19 µM	6.53 µM
CC(=O)Nc1ccc(NC(=O)C(C)OC(=O)c2ccccc2C(=O)c2ccc(Cl)c([N+](=O)[O-])c2)cc1 (centres undefined)	45.2 µM	15.3 µM
COc1ccc2cc3c(N)nn(C(=O)c4ccccc4[N+](=O)[O-])c3nc2c1	40.2 µM	0.54 µM
Clc1ccc(CSc2nnc(-c3ccncc3)o2)cc1	> 79 µM (inactive)	5.92 µM
COc1ccc(CN(C)C(=O)c2cc(-c3ccc(C)cc3C)nc3ccccc23)c(OC)c1OC	7.07 µM	6.52 µM
C=CCN1c2ccccc2[C@]23C[C@@H](C(=O)OC)N(C(=O)c4ccc(Br)cc4)C2=NC(C(=O)OC)=C(C(=O)OC)[C@H]13	12.2 µM	9.35 µM
O=C(Nc1nnc(S(=O)(=O)N2CCCCCC2)s1)c1cccc(Br)c1	7.27 µM	2.68 µM
COc1ccc(OC)c(-c2nnc3n2N=C(c2ccc(OC)c(OCC4CC4)c2)CS3)c1	47.7 µM	3.87 µM
CC1CCN(Cc2c(C(=O)N/N=C/c3ccc(C(C)(C)C)cc3)nnn2-c2nonc2N)CC1	29.8 µM	14.6 µM

Compound	IC50 (Cytotoxicity)	IC50 [1]
COc1ccc(-n2c(C)cc3cc(OC(C)=O)ccc32)cc1	> 79 µM (inactive)	9.18 µM
Nc1ncnc(NCc2ccc(F)cc2)c1[N+](=O)[O-]	> 79 µM (inactive)	3.33 µM
Cc1ccc(NC(=O)Nc2nnc(-c3ccncc3)s2)cc1	11 µM	5.53 µM
COc1ccc(CNC(=O)C(c2ccc(O)cc2)N(Cc2ccco2)C(=O)c2snc(C(N)=O)c2N)cc1 (centres undefined)	5 µM	4.58 µM
O=C(Nc1cccc(-c2cnc3ccccc3n2)c1)c1cccc(NC(=O)c2ccco2)c1	6.82 µM	3.68 µM
O=C(NCc1nc(-c2ccc(C(F)(F)F)cc2)no1)Nc1cc(Cl)cc(Cl)c1	5.56 µM	5.81 µM
COc1ccc(Cc2nnc(SCc3ccc([N+](=O)[O-])cc3)o2)cc1	41.8 µM	1.76 µM
O=C(COC(=O)c1c2c(nc3ccccc13)CCN(Cc1ccccc1)C2)Nc1c(F)cccc1F	2.64 µM	3.28 µM
CCn1c2ccccc2c2cc(/C=N/O)ccc21	46.4 µM	3.38 µM
Cc1ccc(CCC(=O)Nc2ncc(Cc3cccc(Cl)c3Cl)s2)o1	19.1 µM	8.87 µM
CCN1CCN(Cc2ccc(NC(=O)c3ccc(C)c(NC(=O)c4ccc5n[nH]nc5c4)c3)cc2C(F)(F)F)CC1	33.3 µM	2.58 µM
O=C(Nc1cccnc1)c1sc2cccc(F)c2c1Cl	43 µM	12.1 µM
Cc1cc(N2CCOCC2)c2c(N)c(Br)cc(C)c2n1	20 µM	0.729 µM
COc1cc2c(c(OC)c1O)-c1ccc(OC)c(=O)cc1C(NC(=O)C(F)(F)F)CC2 (centres undefined)	> 79 µM (inactive)	> 79 µM (inactive)
COc1ccc2[nH]c(=O)c(CN(Cc3cccnc3)S(=O)(=O)c3ccccc3F)cc2c1	3.68 µM	2.1 µM
COCCCN=C1NN=C(c2cc(C)n(Cc3ccccc3Cl)c2C)CS1	> 79 µM (inactive)	inactive
